# Measurements published in patent US20250011332A1, “PYRAZOLO FUSED RING COMPOUND AND USE THEREOF” (SOTER BIOPHARMA PTE. LTD., priority 2021, published 2025).
# pIC50: −log10 of the molar value.
# What was measured:
# JAK1(h) = JAK1(h) (Homo sapiens (Human), UniProt P23458); experiment: JAK1 kinase activity test in vitro ([γ-33P]-ATP, Eurofins); assay type: biochemical
# Procedure: (§1) Recombinant human JAK1, JAK2, JAK3 and Tyk2 […], main instruments and reagents are all provided by the British company Eurofins
# (§2) JAK2, JAK3 and TYK2 dilution: 20 mM 3-(N-morpholine)propanesulfonic acid (MOPS), 1 mM EDTA, 0.01% Brij-35.5% glycerol, 0.1% β-mercaptoethanol, 1 mg/mL BSA; JAK1 dilution: 20 mM TRIS, 0.2 mM EDTA, 0.1% β-mercaptoethanol, 0.01% Brij-35.5% glycerol. All compounds were prepared as 100% DMSO solutions and brought to 50 times the final assay concentration. The test compound was subjected to 3-fold serial concentration dilution with a final concentration from 10 μM to 0.001 μM of a total of 9 concentrations. The content of DMSO in the detection reaction was 2%. A working stock solution of this compound was added to the assay well as the first component of the reaction, and then the remaining components were added according to the protocol detailed in the following determination.
# JAK1(h) was incubated with 20 mM Tris/HCl pH 7.5, 0.2 mM EDTA, 500 μM MGEEPLYWSFPAKKK (SEQ ID NO: 1), 10 mM magnesium acetate and [γ-^33P]-ATP (activity and concentration were determined as required). The reaction was started by adding the Mg/ATP mixture, and after incubation at room temperature for 40 min, the reaction was terminated by adding 0.5% phosphoric acid. Then 10 μL of the reaction product was spotted on a P30 filter pad which was washed three times with 0.425% phosphoric acid and once with methanol within 4 min, dried, and subjected to scintillation counting.
# (§3) IC50 results were analyzed by XLFIT5 (205 formula) of IDBS Company.
# JAK2(h) = JAK2(h) (Homo sapiens (Human), UniProt O60674); experiment: JAK2 kinase activity test in vitro ([γ-33P]-ATP, Eurofins); assay type: biochemical
# Procedure: as §1, §2
# JAK2(h) was incubated with 8 mM MOPS pH 7.0, 0.2 mM EDTA, 100 μM […] (SEQ ID NO: 2), 10 mM magnesium acetate, and [γ-^33P]-ATP (activity and concentration were determined as required). The reaction was started by adding the Mg/ATP mixture, and after incubation at room temperature for 40 min, the reaction was terminated by adding 0.5% phosphoric acid. Then 10 μL of the reaction product was spotted on a P30 filter pad which was washed three times with 0.425% phosphoric acid and once with methanol within 4 min, dried, and subjected to scintillation counting.
# as §3
# JAK3(h) = JAK3(h) (Homo sapiens (Human), UniProt P52333); experiment: JAK3 kinase activity test in vitro ([γ-33P]-ATP, Eurofins); assay type: biochemical
# Procedure: as §1, §2
# JAK3(h) was incubated with 8 mM MOPS pH 7.0, 0.2 mM EDTA, 500 μM GGEEEEYFELVKKKK (SEQ ID NO: 3), 10 mM magnesium acetate, and [γ-^33P]-ATP (activity and concentration were determined as required). The reaction was started by adding the Mg/ATP mixture, and after incubation at room temperature for 40 min, the reaction was terminated by adding 0.5% phosphoric acid. Then 10 μL of the reaction product was spotted on a P30 filter pad which was washed three times with 0.425% phosphoric acid and once with methanol within 4 min, dried, and subjected to scintillation counting.
# as §3
# TYK2(h) = TYK2(h) (Homo sapiens (Human), UniProt P29597); experiment: TYK2 kinase activity test in vitro ([γ-33P]-ATP, Eurofins); assay type: biochemical
# Procedure: as §1, §2
# TYK2(h) was incubated with 8 mM MOPS pH 7.0, 0.2 mM EDTA, 250 μM GGMEDIYFEFMGGKKK (SEQ ID NO: 4), 10 mM magnesium acetate, and [γ-^33P]-ATP (activity and concentration were determined as required). The reaction was started by adding the Mg/ATP mixture, and after incubation at room temperature for 40 min, the reaction was terminated by adding 0.5% phosphoric acid. Then 10 μL of the reaction product was spotted on a P30 filter pad which was washed three times with 0.425% phosphoric acid and once with methanol within 4 min, dried, and subjected to scintillation counting.
# as §3
# [1] = Pharmacokinetic (PK) test in mice; assay type: in vivo; conditions: mouse, plasma, male balb/c mice, intravenous 1 mg/kg, gavage 3 mg/kg
# Procedure: The clear solution obtained after dissolving the test compound was administered to male mice (balb/c) via tail vein injection and gavage respectively. After administration of the test compound, blood samples were collected from mandibular veins for the intravenous injection group (1 mg/kg) at 0.083, 0.25, 0.5, 1, 2, 4, 8 and 24 h and for the gavage group (3 mg/kg) was at 0.25, 0.5, 1, 2, 4, 6, 8 and 24 h, respectively, and centrifuged to obtain plasma. The LC-MS/MS method was used to determine the blood drug concentration, and the WinNonlin™ Version 6.3 pharmacokinetic software was used to calculate the relevant pharmacokinetic parameters by the non-compartmental model linear logarithmic trapezoidal method.
# [2] = tested on: IL-23 induced psoriasis-like skin lesions in mice; experiment: In vivo drug efficacy test in mouse psoriasis model (IL-23 induced auricular epidermal dysplasia); set-up: species or system C57BL/6 mice; Ear comprehensive score: scale not given here; conditions: for Ear weight: end of experiment (Day 10), 8 mm punch
# Source text: Purpose: The purpose of this experiment is to evaluate the preventive and therapeutic effect of the test substance on IL-23 induced psoriasis-like skin lesions in mice through the psoriasis-like skin lesions model induced by intradermal injection of IL-23 into the mouse auricle.
# Method: After the adaptation period of experimental animals, 50 mice were divided into 5 groups according to the Excel completely random grouping method, with 10 mice in each group, as follows: vehicle (0.5% MC & 0.5% Tween 80) control group, modeling group, compound 1 (10, 20, 50 mg/kg) group. Except for the vehicle control group, the animals in the other groups were intradermally injected with IL-23 (3 μg/10 μL/mouse/day, QD) in their right ears for 8 consecutive days (D1-D8). The animals in the control group were intradermally injected with an equal volume of physiological saline solution (10 μL/mouse/day, QD) in the right ear for 8 consecutive days (D1-D8). For the modeling group, the vehicle and test drug were administered orally at the same time, twice a day (Bid), with an interval of 6 h, for 8 consecutive days (D1-D8). During the dosing period, the animal body weight was monitored every two days. On D1, D3, D5, D7 (all before IL-23 injection), and D9, the thickness of the mouse right ear was measured and the auricle appearance was observed and scored. At the end of the experiment (Day 10), the ear on the side where the model was created was taken, and the ear was punched along the edge of the auricle with an 8 mm punch to obtain a piece of ear which was weighed. The piece of ear from the right ear was fixed with formalin and then subjected to histopathological examination (H&E) staining.
# [3] = 10 mg/kg oral gavage Bid, day 1
# [4] = 10 mg/kg oral gavage Bid, day 3
# [5] = 10 mg/kg oral gavage Bid, day 5
# [6] = 10 mg/kg oral gavage Bid, day 7
# [7] = 10 mg/kg oral gavage Bid, day 9
# [8] = 20 mg/kg oral gavage Bid, day 1
# [9] = 20 mg/kg oral gavage Bid, day 3
# [10] = 20 mg/kg oral gavage Bid, day 5
# [11] = 20 mg/kg oral gavage Bid, day 7
# [12] = 20 mg/kg oral gavage Bid, day 9
# [13] = 50 mg/kg oral gavage Bid, day 1
# [14] = 50 mg/kg oral gavage Bid, day 3
# [15] = 50 mg/kg oral gavage Bid, day 5
# [16] = 50 mg/kg oral gavage Bid, day 7
# [17] = 50 mg/kg oral gavage Bid, day 9
# JAK2(h), sequence (O60674 whole entry): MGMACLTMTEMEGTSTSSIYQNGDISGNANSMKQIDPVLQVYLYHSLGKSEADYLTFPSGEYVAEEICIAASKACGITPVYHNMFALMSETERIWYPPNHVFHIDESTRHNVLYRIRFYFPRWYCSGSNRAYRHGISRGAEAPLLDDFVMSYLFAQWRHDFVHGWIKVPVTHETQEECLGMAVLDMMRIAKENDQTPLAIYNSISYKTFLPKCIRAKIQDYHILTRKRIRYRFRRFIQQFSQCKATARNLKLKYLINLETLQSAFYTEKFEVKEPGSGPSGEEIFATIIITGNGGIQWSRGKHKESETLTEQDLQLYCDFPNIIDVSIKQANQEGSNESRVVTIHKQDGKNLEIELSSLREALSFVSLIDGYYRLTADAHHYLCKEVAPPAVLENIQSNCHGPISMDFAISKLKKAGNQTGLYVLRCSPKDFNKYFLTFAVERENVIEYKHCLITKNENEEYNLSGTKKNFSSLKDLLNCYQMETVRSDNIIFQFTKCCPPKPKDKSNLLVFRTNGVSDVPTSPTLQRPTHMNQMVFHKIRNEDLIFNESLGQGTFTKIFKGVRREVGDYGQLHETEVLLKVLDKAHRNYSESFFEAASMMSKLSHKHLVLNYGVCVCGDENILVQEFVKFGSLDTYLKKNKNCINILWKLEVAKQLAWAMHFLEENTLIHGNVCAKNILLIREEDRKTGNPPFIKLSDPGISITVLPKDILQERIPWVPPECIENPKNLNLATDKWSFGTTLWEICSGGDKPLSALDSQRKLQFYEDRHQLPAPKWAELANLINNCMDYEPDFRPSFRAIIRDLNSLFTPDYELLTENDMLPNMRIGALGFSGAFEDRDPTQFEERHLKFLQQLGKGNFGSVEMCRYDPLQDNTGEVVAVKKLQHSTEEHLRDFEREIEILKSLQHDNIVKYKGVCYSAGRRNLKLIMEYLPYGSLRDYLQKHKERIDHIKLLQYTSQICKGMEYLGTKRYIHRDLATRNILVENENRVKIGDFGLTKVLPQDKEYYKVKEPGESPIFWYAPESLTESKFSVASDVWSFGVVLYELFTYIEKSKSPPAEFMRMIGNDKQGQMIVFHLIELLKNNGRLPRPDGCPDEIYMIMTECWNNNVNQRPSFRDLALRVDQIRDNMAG
# JAK3(h), sequence (P52333 whole entry): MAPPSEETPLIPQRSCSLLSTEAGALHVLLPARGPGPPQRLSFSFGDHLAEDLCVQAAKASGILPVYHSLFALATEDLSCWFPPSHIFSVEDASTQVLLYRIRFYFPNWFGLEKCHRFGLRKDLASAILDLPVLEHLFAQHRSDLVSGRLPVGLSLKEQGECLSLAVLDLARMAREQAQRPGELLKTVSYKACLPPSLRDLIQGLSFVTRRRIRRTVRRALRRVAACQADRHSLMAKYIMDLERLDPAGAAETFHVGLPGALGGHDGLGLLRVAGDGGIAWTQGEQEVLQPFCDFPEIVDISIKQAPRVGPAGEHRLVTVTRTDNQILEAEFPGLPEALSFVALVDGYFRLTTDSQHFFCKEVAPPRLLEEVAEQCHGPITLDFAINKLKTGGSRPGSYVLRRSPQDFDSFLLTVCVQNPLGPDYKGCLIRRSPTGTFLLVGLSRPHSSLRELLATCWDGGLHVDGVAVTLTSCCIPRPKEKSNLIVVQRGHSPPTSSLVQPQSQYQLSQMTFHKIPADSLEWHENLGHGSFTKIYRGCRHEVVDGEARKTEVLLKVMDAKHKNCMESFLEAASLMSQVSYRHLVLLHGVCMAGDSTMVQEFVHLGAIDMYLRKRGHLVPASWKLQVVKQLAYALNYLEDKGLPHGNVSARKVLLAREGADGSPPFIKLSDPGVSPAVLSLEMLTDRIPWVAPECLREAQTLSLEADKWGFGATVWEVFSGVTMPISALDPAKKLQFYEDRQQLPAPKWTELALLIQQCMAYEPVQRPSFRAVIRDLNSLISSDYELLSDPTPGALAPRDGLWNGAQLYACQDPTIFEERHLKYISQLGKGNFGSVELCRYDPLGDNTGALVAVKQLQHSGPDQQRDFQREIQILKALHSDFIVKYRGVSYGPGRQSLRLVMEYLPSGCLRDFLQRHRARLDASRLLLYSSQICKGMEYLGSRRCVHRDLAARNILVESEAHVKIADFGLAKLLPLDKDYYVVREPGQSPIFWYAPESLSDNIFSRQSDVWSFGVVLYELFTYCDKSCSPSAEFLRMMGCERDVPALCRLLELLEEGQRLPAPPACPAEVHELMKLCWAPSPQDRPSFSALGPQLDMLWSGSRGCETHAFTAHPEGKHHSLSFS
# TYK2(h), sequence (P29597 whole entry): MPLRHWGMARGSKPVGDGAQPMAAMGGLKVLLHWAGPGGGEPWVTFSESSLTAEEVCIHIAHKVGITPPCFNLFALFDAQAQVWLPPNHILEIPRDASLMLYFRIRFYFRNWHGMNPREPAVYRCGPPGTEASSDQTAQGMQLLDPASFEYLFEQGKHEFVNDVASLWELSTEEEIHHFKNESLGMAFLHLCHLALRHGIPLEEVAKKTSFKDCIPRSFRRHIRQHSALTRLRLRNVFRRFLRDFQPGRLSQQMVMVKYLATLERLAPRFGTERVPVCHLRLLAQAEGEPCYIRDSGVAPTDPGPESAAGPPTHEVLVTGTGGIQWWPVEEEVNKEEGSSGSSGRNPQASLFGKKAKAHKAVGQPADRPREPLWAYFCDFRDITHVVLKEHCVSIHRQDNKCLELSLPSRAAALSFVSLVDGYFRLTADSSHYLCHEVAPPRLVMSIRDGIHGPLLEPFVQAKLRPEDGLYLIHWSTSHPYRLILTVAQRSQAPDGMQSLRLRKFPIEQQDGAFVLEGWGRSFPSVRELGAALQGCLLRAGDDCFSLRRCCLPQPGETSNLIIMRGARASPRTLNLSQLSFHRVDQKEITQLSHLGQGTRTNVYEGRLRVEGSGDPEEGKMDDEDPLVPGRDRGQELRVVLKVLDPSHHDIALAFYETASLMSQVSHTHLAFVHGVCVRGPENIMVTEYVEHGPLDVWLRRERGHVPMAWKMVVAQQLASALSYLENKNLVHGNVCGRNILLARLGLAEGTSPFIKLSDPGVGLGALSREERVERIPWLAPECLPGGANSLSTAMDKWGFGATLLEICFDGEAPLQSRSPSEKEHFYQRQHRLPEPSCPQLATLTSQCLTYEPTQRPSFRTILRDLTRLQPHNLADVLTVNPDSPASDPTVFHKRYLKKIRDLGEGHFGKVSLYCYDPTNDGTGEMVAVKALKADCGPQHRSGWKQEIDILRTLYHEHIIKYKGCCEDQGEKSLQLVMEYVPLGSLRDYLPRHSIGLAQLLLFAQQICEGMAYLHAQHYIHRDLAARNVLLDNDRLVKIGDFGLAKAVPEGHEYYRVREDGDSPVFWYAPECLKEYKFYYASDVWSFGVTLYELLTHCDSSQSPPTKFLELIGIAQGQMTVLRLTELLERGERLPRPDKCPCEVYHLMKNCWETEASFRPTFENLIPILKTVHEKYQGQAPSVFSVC
# JAK1(h), sequence (P23458 whole entry): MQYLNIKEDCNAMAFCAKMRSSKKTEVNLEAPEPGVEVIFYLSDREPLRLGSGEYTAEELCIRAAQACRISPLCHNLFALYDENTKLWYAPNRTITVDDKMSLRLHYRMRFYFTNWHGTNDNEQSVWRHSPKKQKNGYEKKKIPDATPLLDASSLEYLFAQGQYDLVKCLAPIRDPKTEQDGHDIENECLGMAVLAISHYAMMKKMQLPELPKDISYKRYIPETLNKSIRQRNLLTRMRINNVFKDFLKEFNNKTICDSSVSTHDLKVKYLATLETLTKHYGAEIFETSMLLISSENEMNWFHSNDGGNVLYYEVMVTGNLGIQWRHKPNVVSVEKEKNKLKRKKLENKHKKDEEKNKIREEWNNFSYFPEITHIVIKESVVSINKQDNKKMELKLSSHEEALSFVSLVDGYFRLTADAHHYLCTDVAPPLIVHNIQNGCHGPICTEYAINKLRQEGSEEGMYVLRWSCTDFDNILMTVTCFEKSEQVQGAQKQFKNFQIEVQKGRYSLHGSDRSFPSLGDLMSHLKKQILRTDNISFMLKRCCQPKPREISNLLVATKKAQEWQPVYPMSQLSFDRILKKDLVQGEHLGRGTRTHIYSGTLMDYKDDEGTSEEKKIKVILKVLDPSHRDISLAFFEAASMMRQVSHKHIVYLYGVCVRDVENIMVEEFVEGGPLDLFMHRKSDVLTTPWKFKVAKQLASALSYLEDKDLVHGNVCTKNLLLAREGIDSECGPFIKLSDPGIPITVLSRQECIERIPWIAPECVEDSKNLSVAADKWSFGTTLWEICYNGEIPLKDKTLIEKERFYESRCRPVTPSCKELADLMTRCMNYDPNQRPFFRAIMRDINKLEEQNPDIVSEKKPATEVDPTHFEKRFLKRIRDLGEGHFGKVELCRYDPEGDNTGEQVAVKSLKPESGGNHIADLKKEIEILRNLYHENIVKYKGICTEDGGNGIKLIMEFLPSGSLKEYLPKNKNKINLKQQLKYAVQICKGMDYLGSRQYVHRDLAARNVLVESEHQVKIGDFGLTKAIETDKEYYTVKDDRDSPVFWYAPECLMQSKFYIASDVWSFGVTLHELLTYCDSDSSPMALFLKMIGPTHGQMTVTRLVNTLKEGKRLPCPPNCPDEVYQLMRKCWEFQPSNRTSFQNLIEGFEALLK
structure (smiles),measurement,setting,value
N#CC[C@]1(n2cc(-c3nc(-c4cc(N)[nH]n4)cn4nccc34)cn2)CC2(C[C@@H](C#N)C2)C1 (stereo partly drawn) [Compound 21],pIC50,JAK1(h),8.30
same,pIC50,JAK2(h),8.52
same,pIC50,JAK3(h),7.00
same,pIC50,TYK2(h),9.15
Cn1ccc(-c2cn3nccc3c(-c3cnn(C(CC#N)C45CC(C#N)(C4)C5)c3)n2)n1 (stereo not drawn) [Compound 3],pIC50,JAK1(h),5.93
same,pIC50,JAK2(h),6.41
same,pIC50,JAK3(h),5.00
same,pIC50,TYK2(h),6.75
Cn1ccc(-c2cn3nccc3c(-c3cnn([C@]4(CC#N)CC5(C[C@H](C#N)C5)C4)c3)n2)n1 (stereo partly drawn) [Compound 4],pIC50,JAK1(h),6.22
same,pIC50,JAK2(h),7.09
same,pIC50,JAK3(h),≤ 5.00
same,pIC50,TYK2(h),7.70
Cn1cc(-c2cn3nccc3c(-c3cnn([C@]4(CC#N)CC5(C[C@H](C#N)C5)C4)c3)n2)cn1 (stereo partly drawn) [Compound 1],bioavailability,[1]; oral,88.7%
same,AUC(0-inf),[1],7.67 µM·h
same,clearance,[1]; read-out: Cl (clearance rate),15.6 mL/min/kg
same,Cmax,[1]; read-out: Cmax (peak concentration),3.04 µM
same,half-life,[1]; read-out: T1/2 (half-life) (converted),143 min
same,Vd,[1]; read-out: Vd (distribution volume),1.59 L/kg
same,Ear comprehensive score,[2]; [3],0.00 ± 0.00
same,Ear thickness (mm),[2]; [3],0.189 ± 0.006 mm
same,Weight,[2]; [3],19.77 ± 0.59 g
same,Ear comprehensive score,[2]; [4],0.00 ± 0.00
same,Ear thickness (mm),[2]; [4],0.287 ± 0.018 mm
same,Weight,[2]; [4],19.69 ± 0.57 g
same,Ear comprehensive score,[2]; [5],0.60 ± 0.52
same,Ear thickness (mm),[2]; [5],0.311 ± 0.013 mm
same,Weight,[2]; [5],20.02 ± 0.77 g
same,Ear comprehensive score,[2]; [6],1.70 ± 1.06
same,Ear thickness (mm),[2]; [6],0.373 ± 0.030 mm
same,Weight,[2]; [6],19.69 ± 0.63 g
same,Ear comprehensive score,[2]; [7],2.60 ± 1.43
same,Ear thickness (mm),[2]; [7],0.430 ± 0.048 mm
same,Weight,[2]; [7],20.04 ± 0.72 g
same,Ear weight,[2]; 10 mg/kg oral gavage Bid,19.16 ± 1.56 mg
same,Ear comprehensive score,[2]; [8],0.00 ± 0.00
same,Ear thickness (mm),[2]; [8],0.190 ± 0.009 mm
same,Weight,[2]; [8],19.77 ± 0.54 g
same,Ear comprehensive score,[2]; [9],0.00 ± 0.00
same,Ear thickness (mm),[2]; [9],0.289 ± 0.028 mm
same,Weight,[2]; [9],19.85 ± 0.78 g
same,Ear comprehensive score,[2]; [10],0.60 ± 0.70
same,Ear thickness (mm),[2]; [10],0.306 ± 0.018 mm
same,Weight,[2]; [10],20.13 ± 0.78 g
same,Ear comprehensive score,[2]; [11],1.40 ± 0.52
same,Ear thickness (mm),[2]; [11],0.350 ± 0.025 mm
same,Weight,[2]; [11],19.80 ± 0.92 g
same,Ear comprehensive score,[2]; [12],1.50 ± 0.71
same,Ear thickness (mm),[2]; [12],0.381 ± 0.032 mm
same,Weight,[2]; [12],20.27 ± 0.90 g
same,Ear weight,[2]; 20 mg/kg oral gavage Bid,18.76 ± 1.62 mg
same,Ear comprehensive score,[2]; [13],0.00 ± 0.00
same,Ear thickness (mm),[2]; [13],0.193 ± 0.006 mm
same,Weight,[2]; [13],19.78 ± 0.53 g
same,Ear comprehensive score,[2]; [14],0.00 ± 0.00
same,Ear thickness (mm),[2]; [14],0.279 ± 0.024 mm
same,Weight,[2]; [14],19.85 ± 0.68 g
same,Ear comprehensive score,[2]; [15],0.10 ± 0.32
same,Ear thickness (mm),[2]; [15],0.289 ± 0.025 mm
same,Weight,[2]; [15],20.41 ± 0.70 g
same,Ear comprehensive score,[2]; [16],1.40 ± 0.70
same,Ear thickness (mm),[2]; [16],0.338 ± 0.023 mm
same,Weight,[2]; [16],20.15 ± 0.56 g
same,Ear comprehensive score,[2]; [17],1.00 ± 0.47
same,Ear thickness (mm),[2]; [17],0.352 ± 0.032 mm
same,Weight,[2]; [17],20.28 ± 0.76 g
same,Ear weight,[2]; 50 mg/kg oral gavage Bid,17.63 ± 1.47 mg
Cn1cc(-c2cc(-c3cnn([C@]4(CC#N)CC5(C[C@H](C#N)C5)C4)c3)c3ccnn3c2)cn1 (stereo partly drawn) [Compound 16],pIC50,JAK1(h),7.38
same,pIC50,JAK2(h),8.22
same,pIC50,JAK3(h),7.17
same,pIC50,TYK2(h),8.70
Cn1ccc(-c2cn3nccc3c(-c3cnn(C4(CC#N)CC5C(C#N)C5C4)c3)n2)n1 (stereo not drawn) [Compound 8],pIC50,JAK1(h),7.86
same,pIC50,JAK2(h),8.95
same,pIC50,JAK3(h),7.64
same,pIC50,TYK2(h),8.19
Cn1ccc(-c2cn3nccc3c(-c3cnn(C4(CC#N)CC5(CN(CC#N)C5)C4)c3)n2)n1 [Compound 6],pIC50,JAK1(h),5.50
same,pIC50,TYK2(h),6.75
Cn1ccc(-c2cn3nccc3c(-c3cnn(C4(CC#N)CC5(CN(C#N)C5)C4)c3)n2)n1 [Compound 7],pIC50,JAK1(h),5.54
same,pIC50,TYK2(h),6.64
Cn1ccc(-c2cn3nccc3c(-c3cnn(C4(CC#N)CC5(CCN(C#N)CC5)C4)c3)n2)n1 [Compound 9],pIC50,JAK1(h),6.89
same,pIC50,JAK2(h),8.29
same,pIC50,JAK3(h),6.68
same,pIC50,TYK2(h),8.55
Cn1nc(-c2cn3nccc3c(-c3cnn([C@]4(CC#N)CC5(C[C@H](C#N)C5)C4)c3)n2)cc1N (stereo partly drawn) [Compound 14],pIC50,JAK1(h),7.29
same,pIC50,JAK2(h),8.22
same,pIC50,JAK3(h),6.53
same,pIC50,TYK2(h),9.10
Cn1ccc(-c2cn3nccc3c(-c3cnn([C@]4(CC#N)CC5(C[C@@H](C#N)C5)C4)c3)n2)n1 (stereo partly drawn) [Compound 5],pIC50,JAK1(h),7.11
same,pIC50,JAK2(h),7.40
same,pIC50,JAK3(h),5.65
same,pIC50,TYK2(h),8.05
